This is an account of results in ChEMBL document CHEMBL1147019, “5-Piperazinyl pyridine carboxamide bradykinin B1 antagonists” (Bioorg Med Chem Lett, 2006).

Molecules are shown by their SMILES.

The first experiment addresses T1, B1 bradykinin receptor (Homo sapiens, UniProt P46663). Nature of the experiment: Binding affinity to human BK1 receptor E273 mutant.
Regarding `COC(=O)c1c(F)cccc1-c1ccc(CNc2ccc(C(=O)N3CCN(c4ccncc4)CC3)cn2)c(F)c1`, the inhibition constant (Ki) (in general, a measure of affinity in units of concentration, obtained from inhibition or displacement) stood at 0.05 nM.
On the same count and under the same terms, to `COC(=O)c1c(F)cccc1-c1ccc(CNc2ccc(C(=O)N3CCN(c4ccccn4)CC3)cn2)c(F)c1` belongs 286 nM.
With `O=C(C[C@@H]1C(=O)Nc2ccccc2N1S(=O)(=O)c1ccc(Cl)c(Cl)c1)NCCc1ccc(C2=NCCN2)cc1`, the Ki stood at 0.0078 nM.

A further experiment deals with T1, B1 bradykinin receptor. The experiment in a line: Binding affinity to human BK1 receptor N298 mutant.
In the case of `COC(=O)c1c(F)cccc1-c1ccc(CNc2ccc(C(=O)N3CCN(c4ccncc4)CC3)cn2)c(F)c1`, the affinity, expressed as Ki, was 0.83 nM.
Turning to `COC(=O)c1c(F)cccc1-c1ccc(CNc2ccc(C(=O)N3CCN(c4ccccn4)CC3)cn2)c(F)c1`, the Ki came to 726 nM.
Still for that read-out and setting: as for `O=C(C[C@@H]1C(=O)Nc2ccccc2N1S(=O)(=O)c1ccc(Cl)c(Cl)c1)NCCc1ccc(C2=NCCN2)cc1`, the figure is 0.038 nM.

Another experiment deals with T1, B1 bradykinin receptor. The experiment in a line: Binding affinity to human BK1 receptor D291 mutant.
With `COC(=O)c1c(F)cccc1-c1ccc(CNc2ccc(C(=O)N3CCN(c4ccncc4)CC3)cn2)c(F)c1`, the affinity, expressed as Ki, was 0.08 nM.
In turn, `COC(=O)c1c(F)cccc1-c1ccc(CNc2ccc(C(=O)N3CCN(c4ccccn4)CC3)cn2)c(F)c1` yielded an inhibitory constant (Ki) of 85 nM.
Same read-out and setting: to `O=C(C[C@@H]1C(=O)Nc2ccccc2N1S(=O)(=O)c1ccc(Cl)c(Cl)c1)NCCc1ccc(C2=NCCN2)cc1` belongs 0.049 nM.

A further experiment addresses T1, B1 bradykinin receptor. Nature of the experiment: Binding affinity to human BK1 receptor Q295 mutant.
`COC(=O)c1c(F)cccc1-c1ccc(CNc2ccc(C(=O)N3CCN(c4ccncc4)CC3)cn2)c(F)c1` yielded a Ki of 5.12 nM.
On to `COC(=O)c1c(F)cccc1-c1ccc(CNc2ccc(C(=O)N3CCN(c4ccccn4)CC3)cn2)c(F)c1`, for which the affinity corresponds to a Ki of 10000 nM.
As to `O=C(C[C@@H]1C(=O)Nc2ccccc2N1S(=O)(=O)c1ccc(Cl)c(Cl)c1)NCCc1ccc(C2=NCCN2)cc1`, the Ki stood at 0.89 nM.

The next experiment deals with T2, B1 bradykinin receptor (Homo sapiens, UniProt P46663).
T2 sequence (P46663 whole entry): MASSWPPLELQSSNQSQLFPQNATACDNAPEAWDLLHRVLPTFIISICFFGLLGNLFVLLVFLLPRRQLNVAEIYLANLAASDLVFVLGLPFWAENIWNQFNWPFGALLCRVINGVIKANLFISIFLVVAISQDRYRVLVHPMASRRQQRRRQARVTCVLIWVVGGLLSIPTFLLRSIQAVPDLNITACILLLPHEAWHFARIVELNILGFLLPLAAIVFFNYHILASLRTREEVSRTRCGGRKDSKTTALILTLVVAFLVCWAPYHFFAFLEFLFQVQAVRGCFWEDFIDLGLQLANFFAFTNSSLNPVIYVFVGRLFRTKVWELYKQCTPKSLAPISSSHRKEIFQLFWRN
The experiment in a line: Binding affinity to human BK1 receptor.
In the case of `CCCCN1CCN(C(=O)c2ccc(NCc3ccc(-c4cccc(F)c4C(=O)OC)cc3F)nc2)CC1`, the affinity corresponds to a Ki of 1.4 nM.
Still for that read-out and setting: as for `C/C=C/CN1CCN(C(=O)c2ccc(NCc3ccc(-c4cccc(F)c4C(=O)OC)cc3F)nc2)CC1`, the figure is 3.3 nM; as for `COC(=O)c1c(F)cccc1-c1ccc(CNc2nccc(C)c2NC(=O)CC#N)c(F)c1`, 0.71 nM.
Still for that read-out and setting: as for `COC(=O)c1c(F)cccc1-c1ccc(CNc2ccc(C(=O)N3CCN(CC(F)(F)F)CC3)cn2)c(F)c1`, the figure is 52 nM; as for `COC(=O)c1c(F)cccc1-c1ccc(CNc2cc(C(=O)N3CCCCC3)ccn2)c(F)c1`, greater than 3000 nM; as for `COC(=O)c1c(F)cccc1-c1ccc(CNc2ccc(C(=O)N3CCN(c4cccnc4)CC3)cn2)c(F)c1`, 3.5 nM.
In the case of `COC(=O)c1c(F)cccc1-c1ccc(CNc2ccc(C(=O)N3CCN(c4ccccc4)CC3)cn2)c(F)c1`, the affinity, expressed as Ki, was 62 nM.
On the same count and under the same terms, as for `COC(=O)c1c(F)cccc1-c1ccc(CNc2ccc(C(=O)N3CCN(CC(F)F)CC3)cn2)c(F)c1`, the figure is 28 nM; as for `CCCN1CCN(C(=O)c2ccc(NCc3ccc(-c4cccc(F)c4C(=O)OC)cc3F)nc2)CC1`, 1.7 nM; as for `COC(=O)c1c(F)cccc1-c1ccc(CNc2ccccn2)c(F)c1`, 815 nM.
For the molecule `CCN1CCN(C(=O)c2ccc(NCc3ccc(-c4cccc(F)c4C(=O)OC)cc3F)nc2)CC1`, the Ki came out at 3.4 nM.
The molecule `COC(=O)c1c(F)cccc1-c1ccc(CNc2ccc(C(=O)N3CCN(C4CCCC4)CC3)cn2)c(F)c1` returned an inhibitory constant (Ki) of 1.5 nM.
Molecule `COC(=O)c1c(F)cccc1-c1ccc(CNc2ccc(C(=O)N3CCN(c4ccncc4)CC3)cn2)c(F)c1` displayed an inhibition constant Ki of 0.045 nM.
`COC(=O)c1c(F)cccc1-c1ccc(CNc2ccc(C(=O)N3CCN(c4ccccn4)CC3)cn2)c(F)c1` came in with a Ki of 65 nM.
On the same count and under the same terms, as for `COC(=O)c1c(F)cccc1-c1ccc(CNc2ccc(C(=O)N3CCN(CC(C)C)CC3)cn2)c(F)c1`, the figure is 1.5 nM.
With `CCC(C)N1CCN(C(=O)c2ccc(NCc3ccc(-c4cccc(F)c4C(=O)OC)cc3F)nc2)CC1` (stereo not given), the Ki was 1.5 nM.
Still for that read-out and setting: to `COC(=O)c1c(F)cccc1-c1ccc(CNc2ccc(C(=O)N3CCN(CCF)CC3)cn2)c(F)c1` belongs 5.2 nM.
Consider `COC(=O)c1c(Cl)cccc1-c1ccc(CNc2cc(CN3CCOCC3)ccn2)c(F)c1`, for which the Ki was greater than 3000 nM.
Consider `COC(=O)c1c(F)cccc1-c1ccc(CNc2cc(C(=O)N3CCOCC3)ccn2)c(F)c1`, for which the affinity, expressed as Ki, was 2100 nM.
On the same count and under the same terms, to `COC(=O)c1c(F)cccc1-c1ccc(CNc2ccc(C(=O)N3CCCCC3)cn2)c(F)c1` belongs 70 nM; to `COC(=O)c1c(F)cccc1-c1ccc(CNc2ccc(C(=O)N3CCN(C4CCCCC4)CC3)cn2)c(F)c1`, 2.8 nM; to `COC(=O)c1c(F)cccc1-c1ccc(CNc2ccc(C(=O)N3CCN(CCC(C)C)CC3)cn2)c(F)c1`, 9.5 nM.
The same measure, in the same setting: as for `COC(=O)c1c(F)cccc1-c1ccc(CNc2ccc(C(=O)N3CCN(C)CC3)cn2)c(F)c1`, the figure is 4.4 nM.
Still for that read-out and setting: as for `O=C(C[C@@H]1C(=O)Nc2ccccc2N1S(=O)(=O)c1ccc(Cl)c(Cl)c1)NCCc1ccc(C2=NCCN2)cc1`, the figure is 0.034 nM; as for `COC(=O)c1c(F)cccc1-c1ccc(CNc2cc(C(=O)N3CCN(C)CC3)ccn2)c(F)c1`, 893 nM.
As for `COC(=O)c1c(F)cccc1-c1ccc(CNc2ccc(C(=O)N3CCN(C(=O)OC)CC3)cn2)c(F)c1`, the Ki is 34 nM.
The same measure, in the same setting: as for `C=CCCN1CCN(C(=O)c2ccc(NCc3ccc(-c4cccc(F)c4C(=O)OC)cc3F)nc2)CC1`, the figure is 4 nM.
For `COC(=O)c1c(F)cccc1-c1ccc(CNc2ccc(C(=O)N3CCOCC3)cn2)c(F)c1`, affinity was put at a Ki of 80 nM.
With `COC(=O)c1c(F)cccc1-c1ccc(CNc2ccc(C(=O)N3CCN(C(=O)C(C)(C)C)CC3)cn2)c(F)c1`, the affinity, expressed as Ki, was 213 nM.
The same measure, in the same setting: to `COC(=O)c1c(F)cccc1-c1ccc(CNc2ccc(C(=O)N3CCN(C(C)=O)CC3)cn2)c(F)c1` belongs 17 nM.
The same measure, in the same setting: to `C=CCN1CCN(C(=O)c2ccc(NCc3ccc(-c4cccc(F)c4C(=O)OC)cc3F)nc2)CC1` belongs 8 nM; to `COC(=O)c1c(Cl)cccc1-c1ccc(CNc2cc(CN3CCCCC3)ccn2)c(F)c1`, 611 nM.
Same read-out and setting: as for `COC(=O)c1c(F)cccc1-c1ccc(CNc2ccc(CN3CCCCC3)cn2)c(F)c1`, the figure is 9.1 nM; as for `COC(=O)c1c(F)cccc1-c1ccc(CNc2ccc(CN3CCOCC3)cn2)c(F)c1`, 184 nM; as for `COC(=O)c1c(F)cccc1-c1ccc(CNc2ccc(C(=O)N3CCN(Cc4ccccc4)CC3)cn2)c(F)c1`, 26 nM.
Take `COC(=O)c1c(F)cccc1-c1ccc(CNc2ccc(C(=O)N3CCN(CC4CC4)CC3)cn2)c(F)c1`: the Ki amounted to 0.85 nM.
As for `COC(=O)c1c(F)cccc1-c1ccc(CNc2ccc(C(=O)N3CCN(CC4CCCC4)CC3)cn2)c(F)c1`, affinity was put at a Ki of 1.7 nM.
Same read-out and setting: to `COC(=O)c1c(F)cccc1-c1ccc(CNc2ccc(C(=O)N3CCN(S(C)(=O)=O)CC3)cn2)c(F)c1` belongs 23 nM.
In turn, `C#CCN1CCN(C(=O)c2ccc(NCc3ccc(-c4cccc(F)c4C(=O)OC)cc3F)nc2)CC1` came in with a Ki of 25 nM.
On the same count and under the same terms, to `COC(=O)c1c(F)cccc1-c1ccc(CNc2ccc(C(=O)N3CCN(C(C)C)CC3)cn2)c(F)c1` belongs 2.2 nM; to `COC(=O)c1c(F)cccc1-c1ccc(CNc2ccc(C(=O)N3CCN(CC4CCC4)CC3)cn2)c(F)c1`, 3.4 nM; to `COC(=O)c1c(F)cccc1-c1ccc(CNc2ccc(C(=O)N3CCN(C4CCC4)CC3)cn2)c(F)c1`, 2.9 nM.
As for `COC(=O)c1c(F)cccc1-c1ccc(CNc2ccc(C(=O)N3CCNCC3)cn2)c(F)c1`, the Ki came out at 5.5 nM.
